Results reported in patent US11407715B2, “Substituted indoline derivatives as dengue viral replication inhibitors” (JANSSEN PHARMACEUTICALS, INC., priority 2017, dated 2022).
Like-named read-outs stand apart in the source and are kept apart here.

Legend:
[1] = test system: DENV-2 16681 strain; assay: microbe, parasite or virus in culture; format: cell-based, Dengue virus; conditions: for EC50: DENV-2 16681 eGFP, Vero cells, MOI 0.5, 3 days; for SI: SI=CC50/EC50, DENV-2 antiviral assay
[2] = test system: DENV-1 strain TC974#666; assay: Tetravalent RT-qPCR assay, serotype 1; format: cell-based, Dengue virus; conditions: RT-qPCR serotype 1 TC974#666, Vero cells
Description: (§1) The antiviral activity of the compounds of the invention was tested against DENV-1 strain TC974#666 (NCPV), DENV-2 strain 16681, DENV-3 strain H87 (NCPV) and DENV-4 strain H241 (NCPV) in a RT-qPCR assay. Therefore, Vero cells were infected with either DENV-1, or -2, or -3, or -4 in the presence or absence of test compounds. At day 3 post-infection, the cells were lysed and cell lysates were used to prepare cDNA of both a viral target (the 3′UTR of DENV; Table 2) and a cellular reference gene (β-actin, Table 2). Subsequently, a duplex real time PCR was performed on a Lightcycler480 instrument. The generated Cp value is inversely proportional to the amount of RNA expression of these targets. Inhibition of DENV replication by a test compound results in a shift of Cp's for the 3′UTR gene. On the other hand, if a test compound is toxic to the cells, a similar effect on β-actin expression will be observed. The comparative ΔΔCp method is used to calculate ECs50, which is based on the relative gene expression of the target gene (3′UTR) normalized with the cellular housekeeping gene (β-actin). In addition, CC50 values are determined based on the Cp values acquired for the housekeeping gene β-actin.
(§2) The culture medium consisted of minimal essential medium supplemented with 2% of heat-inactivated fetal calf serum, 0.04% gentamycin (50 mg/mL) and 2 mM of L-glutamine. Vero cells, obtained from ECACC, were suspended in culture medium and 75 μL/well was added in 96-well plates (10000 cells/well), which already contain the antiviral compounds. […] In addition, each plate contains wells which are assigned as virus controls (containing cells and virus in the absence of compound) and cell controls (containing cells in the absence of virus and compound). Once the cells were added in the plates, the plates were incubated in a fully humidified incubator (37° C., 5% CO2) until the next day. Dengue viruses serotype-1, 2, 3 and 4 were diluted in order to obtain a Cp of ˜22-24 in the assay. Therefore, 25 μL of virus suspension was added to all the wells containing test compound and to the wells assigned as virus control. In parallel, 25 μL of culture medium was added to the cell controls. Next, the plates were incubated for 3 days in a fully humidified incubator (37° C., 5% CO2). After 3 days, the supernatant was removed from the wells and the cells were washed twice with ice-cold PBS (˜100 μL). The cell pellets within the 96-well plates were stored at −80° C. for at least 1 day. Next, RNA was extracted using the Cells-to-CT™ lysis kit, according to the manufacturer's guideline (Life Technologies). The cell lysates can be stored at −80C or immediately used in the reverse transcription step.
(§3) In preparation of the reverse transcription step, mix A (table 3A) was prepared and 7.57 μL/well was dispensed in a 96-well plate. After addition of 5 μL of the cell lysates, a five minute denaturation step at 75° C. was performed (table 3B). Afterwards, 7.43 μL of mix B was added (table 3C) and the reverse transcription step was initiated (table 3D) to generate cDNA.
(§4) Finally, a RT-qPCR mix was prepared, mix C (table 4A), and 22.02 μL/well was dispensed in 96-well LightCycler qPCR plates to which 3 μL of cDNA was added and the qPCR was performed according to the conditions in table 4B on a LightCycler 480.
(§5) Using the LightCycler software and an in-house LIMS system, dose response curves for each compound were calculated and the half maximal effective concentration (EC50) and the half maximal cytotoxic concentration (CC50) were determined (Tables 5-8).

[3] = test system: DENV-2 strain 16681; assay: Tetravalent RT-qPCR assay, serotype 2; format: cell-based, Dengue virus; conditions: RT-qPCR serotype 2 16681, Vero cells
Description: as §1, §2, §3, §4, §5

[4] = test system: DENV-3 strain H87; assay: Tetravalent RT-qPCR assay, serotype 3; format: cell-based, Dengue virus; conditions: RT-qPCR serotype 3 H87, Vero cells
Description: as §1, §2, §3, §4, §5

[5] = test system: DENV-4 strain H241; assay: Tetravalent RT-qPCR assay, serotype 4; format: cell-based, Dengue virus; conditions: RT-qPCR serotype 4 H241, Vero cells
Description: as §1, §2, §3, §4, §5

[6] = in vitro; conditions: African green monkey
[7] = in vitro; conditions: African green monkey; remark: listed apart in the source
[8] = test system: Vero cells; conditions: African green monkey
[9] = test system: Vero cells; conditions: African green monkey, 3 days

Compound | EC50 [1] [nM] | SI [1] | EC50 ([2]; Dengue virus, DENV1, Vero) [nM] | EC50 ([3]; Dengue virus, DENV2, Vero) [nM] | EC50 ([4]; Dengue virus, DENV3, Vero) [nM] | EC50 ([5]; Dengue virus, DENV4, Vero) [nM] | CC50 [6] [nM] | CC50 at 3 days [7] [nM] | EC50 [2] [nM] | EC50 [3] [nM] | EC50 [4] [nM] | CC50 [8] [nM] | CC50 [9] [nM] | EC50 [5] [nM]
COc1cc(NC(C(=O)N2CCc3ccc(OC(F)(F)F)cc32)c2ccc(Cl)cc2)cc(OCCC(C)C(=O)O)c1 (single isomer, unassigned) [Compound 1C] | 0.094 | 131193 | 0.23 | 0.18 | 2.4 | 16 | 12000 | – | – | – | – | – | – | –
COc1cc(NC(C(=O)N2CCc3ccc(OC(F)(F)F)cc32)c2ccc(Cl)cc2)cc(OCCC(C)(C)C(=O)O)c1 (single isomer, unassigned) [Compound 2A] | 0.38 | 34500 | 0.57 | 0.48 | 6.1 | 27 | 13000 | > 2500 | – | – | – | – | – | –
COc1cc(NC(C(=O)N2CCc3ccc(OC(F)(F)F)cc32)c2ccc(Cl)cc2)cc(OCC(C)CC(=O)O)c1 (single isomer, unassigned) [Compound 4C] | 0.11 | 121878 | – | – | – | 15 | – | – | 0.066 | 0.06 | 0.77 | 13000 | > 1000 | –
COc1cc(NC(C(=O)N2CCc3ccc(OC(F)(F)F)cc32)c2ccc(Cl)cc2)cc(OCC2(CC(=O)O)CC2)c1 (single isomer, unassigned) [Compound 5A] | 0.51 | 26300 | 0.58 | 0.42 | 8.1 | 58 | 12000 | – | – | – | – | – | – | –
COc1cc(NC(C(=O)N2CCc3ccc(OC(F)(F)F)cc32)c2ccc(Cl)cc2)cc(OCCCCC(=O)O)c1 (single isomer, unassigned) [Compound 13B] | 0.13 | 88200 | 0.19 | 0.12 | 1.9 | 15 | – | > 2500 | – | – | – | 12000 | – | –
COc1cc(CCCCC(=O)O)cc(NC(C(=O)N2CCc3ccc(OC(F)(F)F)cc32)c2ccc(Cl)cc2)c1 (single isomer, unassigned) [Compound 14A] | 0.11 | 151558 | 0.26 | 0.2 | 2.8 | 15 | 16000 | – | – | – | – | – | – | –
COc1cc(NC(C(=O)N2CCc3cc(OC)c(C(F)(F)F)cc32)c2ccc(Cl)cc2)cc(OCCC(C)C(=O)O)c1 (single isomer, unassigned) [Compound 20C] | 0.17 | 59500 | – | – | – | – | – | > 1000 | 0.3 | 0.071 | 3.4 | 12000 | > 1000 | 20
COc1cc(NC(C(=O)N2CCc3cc(OC)c(C(F)(F)F)cc32)c2ccc(Cl)cc2)cc(OCCC(C)C(=O)O)c1 (single isomer, unassigned) [Compound 20D] | 0.23 | 53400 | – | – | – | – | – | – | 0.89 | 0.19 | 8.9 | 13000 | > 1000 | 55
COc1cc(NC(C(=O)N2CCc3cc(OC)c(C(F)(F)F)cc32)c2ccc(Cl)cc2)cc(OCC2CC2C(=O)O)c1 (centres unmarked) [Compound 22AB] | 0.034 | >196427 | – | – | – | – | – | – | 0.091 | 0.029 | 0.49 | 12000 | – | 3.3
COc1cc(NC(C(=O)N2CCc3cc(OC)c(C(F)(F)F)cc32)c2ccc(Cl)cc2)cc(OCC2CC2C(=O)O)c1 (centres unmarked) [Compound 22BB] | 0.46 | 27600 | – | – | – | – | – | – | 1.5 | 0.33 | 9 | 14000 | – | 71
COc1cc(NC(C(=O)N2CCc3cc(OC)c(C(F)(F)F)cc32)c2ccc(Cl)cc2)cc(OC2CC(C(=O)O)C2)c1 (centres unmarked) [Compound 23B] | 0.062 | >88755 | 0.092 | 0.034 | 0.33 | 2.7 | – | – | – | – | – | 12000 | – | –
COc1cc(NC(C(=O)N2CCc3cc(OC)c(C(F)(F)F)cc32)c2ccc(Cl)cc2)cc(OCC2CC(C(=O)O)C2)c1 (centres unmarked) [Compound 24B] | 0.34 | 43100 | 2.2 | 0.26 | – | 66 | – | – | – | – | 14 | 12000 | – | –
COc1cc(NC(C(=O)N2CCc3cc(OC)c(C(F)(F)F)cc32)c2ccc(Cl)cc2)cc(OCC2CC(C(=O)O)C2)c1 (centres unmarked) [Compound 25B] | 0.28 | 52900 | – | – | – | – | – | – | 1.3 | 0.27 | 6.3 | 13000 | – | 55
COc1cc(NC(C(=O)N2CCc3ccc(OC(F)(F)F)cc32)c2ccc(Cl)cc2)cc(OCC2(F)CC2C(=O)O)c1 (centres unmarked) [Compound 28AB] | 0.68 | 19000 | – | – | – | – | – | – | 0.41 | 0.31 | 5.3 | 13000 | – | 69
COc1cc(NC(C(=O)N2CCc3ccc(OC(F)(F)F)cc32)c2ccc(Cl)cc2)cc(OCC2(F)CC2C(=O)O)c1 (centres unmarked) [Compound 28BB] | 0.2 | 70600 | – | – | – | – | – | – | 0.11 | 0.1 | 1.2 | 12000 | > 1000 | 18
COc1cc(NC(C(=O)N2CCc3ccc(OC(F)(F)F)cc32)c2ccc(Cl)cc2)cc(OCC2(F)CC2C(=O)O)c1 (centres unmarked) [Compound 29AB] | 0.53 | 22300 | – | – | – | – | – | – | 0.23 | 0.25 | 4.6 | 12000 | – | 35
COc1cc(NC(C(=O)N2CCc3ccc(OC(F)(F)F)cc32)c2ccc(Cl)cc2)cc(OCC2(F)CC2C(=O)O)c1 (centres unmarked) [Compound 29BB] | 0.069 | 124722 | – | – | – | – | 12000 | – | 0.048 | 0.025 | 0.39 | – | – | 2.8
COc1cc(NC(C(=O)N2CCc3cc(F)c(OC(F)(F)F)cc32)c2ccc(Cl)cc2)cc(OCC2CC(C(=O)O)C2)c1 (centres unmarked) [Compound 30A] | 0.24 | 47400 | – | 0.076 | 1.9 | 18 | 13000 | – | 0.094 | – | – | – | – | –
COc1cc(NC(C(=O)N2CCc3cc(F)c(OC(F)(F)F)cc32)c2ccc(Cl)cc2)cc(OCC2CC(C(=O)O)C2)c1 (centres unmarked) [Compound 31A] | 0.2 | 70300 | – | – | – | – | – | – | 0.19 | 0.11 | 1.5 | 12000 | – | 17
